Reference: patent US20250282799A1, “SUBSTITUTED PYRIDO[4,3-d]PYRIMIDINES AS KRAS MODULATORS” (Alterome Therapeutics, Inc., priority 2023, published 2025)
pIC50: −log10 of the molar value.

The compounds below were run on KRAS G12V dependent lung adenocarcinoma cell line, NCI-H441 (assay: Cellular pERK (Thr202/Tyr204) FRET/HTRF assay). Conditions: Homo sapiens, NCI-H441, cellular pERK (Thr202/Tyr204) HTRF, NCI-H441 cells.
Type: cell-based
Procedure, shortened: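 NCI-H441 cells (KRAS G12V) were seeded and grown overnight at 37 °C, 5% CO2, then treated with compound in DMSO for 1 hr. Lysates were probed with a Eu3+-cryptate/d2 antibody sandwich against pERK1/2 Thr202/Tyr204 and read by HTRF at 665 nm; IC50 from curve fitting.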

Question: With `C=C1CN2CCC3(CC3)[C@@]2(COc2nc(N3CCOC[C@H]4[C@H](F)[C@H]43)c3cnc(-c4cc(N)c(F)c(C)c4C(F)(F)F)c(F)c3n2)C1` [Example 226, 2-fluoro-5-(8-fluoro-4-((1S,7S,8S)-8-fluoro-5-oxa-2-azabicyclo[5.1.0]octan-2-yl)-2-(((R)-6′-methylenetetrahydrospiro[cyclopropane-1,1′-pyrrolizin]-7a′(5′H)-yl)methoxy)pyrido[4,3-d]pyrimidin-7-yl)-3-methyl-4-(trifluoromethyl)aniline] as the compound, how does the pIC50 read?
Answer: Its pIC50 is over 7.30.

Question: With `[2H]C([2H])(Oc1nc(N2CCOC[C@H]3[C@H](F)[C@H]32)c2cnc(-c3cncc4ccc(F)c(Cl)c34)c(F)c2n1)[C@@]12CCCN1C[C@H](F)C2` [Example 113, (1S,7S,8S)-2-(7-(5-chloro-6-fluoroisoquinolin-4-yl)-8-fluoro-2-(((2R,7aS)-2-fluorotetrahydro-1H-pyrrolizin-7a(5H)-yl)methoxy-d2)pyrido[4,3-d]pyrimidin-4-yl)-8-fluoro-5-oxa-2-azabicyclo[5.1.0]octane] as the compound, how does the pIC50 read?
Answer: Its pIC50 is 5.00 to 6.30.

Question: `[2H]C([2H])(Oc1nc(N2CCOC[C@H]3[C@H](F)[C@H]32)c2cnc(-c3cc(O)cc4ccc(C)c(C#C)c34)c(F)c2n1)[C@@]12CCCN1C[C@H](F)C2` [Example 324, 5-ethynyl-4-(8-fluoro-4-((1S,7S,8S)-8-fluoro-5-oxa-2-azabicyclo[5.1.0]octan-2-yl)-2-(((2R,7aS)-2-fluorotetrahydro-1H-pyrrolizin-7a(5H)-yl)methoxy-d2)pyrido[4,3-d]pyrimidin-7-yl)-6-methylnaphthalen-2-ol] was tested. Which pIC50 did it give?
Answer: The pIC50 was over 7.30.

Question: With `C#Cc1c(F)ccc2cc(N)cc(-c3ncc4c(N5CCOC[C@H]6[C@H](F)[C@H]65)nc(OC[C@]56C[C@]7(C[C@H]7F)CN5CCC65CC5)nc4c3F)c12` (single isomer, unassigned) [Example 231] as the compound, how does the pIC50 read?
Answer: The pIC50 was over 7.30.

Question: `Nc1cc(Cl)c(C(F)(F)F)c(-c2ncc3c(N4CCCC[C@H]5[C@H](F)[C@H]54)nc(OC[C@@]45CCCN4CC(=C(F)F)C5)nc3c2F)c1` [Example 369, 3-chloro-5-(2-(((S)-2-(difluoromethylene)tetrahydro-1H-pyrrolizin-7a(5H)-yl)methoxy)-8-fluoro-4-((1S,7R,8S)-8-fluoro-2-azabicyclo[5.1.0]octan-2-yl)pyrido[4,3-d]pyrimidin-7-yl)-4-(trifluoromethyl)aniline] was tested. Which pIC50 did it give?
Answer: The pIC50 was 6.30 to 7.30.

Question: With `C#Cc1c(F)ccc2cc(N)cc(-c3ncc4c(N5CCCC[C@H]6[C@H](F)[C@H]65)nc(OC[C@]56C/C(=C\F)CN5CCC65CC5)nc4c3F)c12` [Example 403, 5-Ethynyl-6-fluoro-4-(8-fluoro-4-((1S,7R,8S)-8-fluoro-2-azabicyclo[5.1.0]octan-2-yl)-2-(((R,E)-6′-(fluoromethylene)tetrahydrospiro[cyclopropane-1,1′-pyrrolizin]-7a′(5′H)-yl)methoxy)pyrido[4,3-d]pyrimidin-7-yl)naphthalen-2-amine] as the compound, how does the pIC50 read?
Answer: Its pIC50 is over 7.30.

Question: How did the pIC50 turn out when `C#Cc1c(F)ccc2cc(N)cc(-c3ncc4c(N5CCOC[C@H]6[C@H](F)[C@H]65)nc(OC[C@@]56CCCN5C[C@H](C)C6)nc4c3F)c12` (single isomer, unassigned) [Example 208] was run?
Answer: The pIC50 was over 7.30.

Question: `[2H]C([2H])(Oc1nc(N2CCOC[C@H]3[C@H](Cl)[C@H]32)c2cnc(-c3cccc4ccc(Cl)c(C#C)c34)c(F)c2n1)[C@@]12CCCN1C[C@H](F)C2` [Example 320, (1S,7S,8S)-8-chloro-2-(7-(7-chloro-8-ethynylnaphthalen-1-yl)-8-fluoro-2-(((2R,7aS)-2-fluorotetrahydro-1H-pyrrolizin-7a(5H)-yl)methoxy-d2)pyrido[4,3-d]pyrimidin-4-yl)-5-oxa-2-azabicyclo[5.1.0]octane] was tested. Which pIC50 did it give?
Answer: Its pIC50 is over 7.30.

Question: `Nc1cc(Cl)c(C(F)(F)F)c(-c2ncc3c(N4CCCC[C@H]5[C@H](F)[C@H]54)nc(OC[C@@]45CCCN4C/C(=C\F)C5)nc3c2F)c1` [Example 373, 3-chloro-5-(8-fluoro-4-((1S,7R,8S)-8-fluoro-2-azabicyclo[5.1.0]octan-2-yl)-2-(((S,Z)-2-(fluoromethylene)tetrahydro-1H-pyrrolizin-7a(5H)-yl)methoxy)pyrido[4,3-d]pyrimidin-7-yl)-4-(trifluoromethyl)aniline] was tested. Which pIC50 did it give?
Answer: The pIC50 was over 7.30.

Question: `Cc1c(F)c(N)cc(-c2ncc3c(N4CCCC[C@H]5[C@H](F)[C@H]54)nc(OC[C@]45CC(=C(F)F)CN4CCC54CC4)nc3c2F)c1C(F)(F)F` [Example 412, 5-(2-(((R)-6′-(difluoromethylene)tetrahydrospiro [cyclopropane-1,1′-pyrrolizin]-7a′(5′H)-yl)methoxy)-8-fluoro-4-((1S,7R,8S)-8-fluoro-2-azabicyclo[5.1.0]octan-2-yl)pyrido[4,3-d]pyrimidin-7-yl)-2-fluoro-3-methyl-4-(trifluoromethyl)aniline] was tested. Which pIC50 did it give?
Answer: The pIC50 was 5.00 to 6.30.

Question: `[2H]C([2H])(F)Oc1c(F)cc(F)c2cc(N)cc(-c3ncc4c(N5CCOC[C@H]6[C@H](F)[C@H]65)nc(OC([2H])([2H])[C@@]56CCCN5C[C@H](F)C6)nc4c3F)c12` [Example 139, 6,8-difluoro-4-(8-fluoro-4-((1S,7S,8S)-8-fluoro-5-oxa-2-azabicyclo[5.1.0]octan-2-yl)-2-(((2R,7aS)-2-fluorotetrahydro-1H-pyrrolizin-7a(5H)-yl)methoxy-d2)pyrido[4,3-d]pyrimidin-7-yl)-5-(fluoromethoxy-d2)naphthalen-2-amine] was tested. Which pIC50 did it give?
Answer: The pIC50 was over 7.30.

Question: How did the pIC50 turn out when `[2H]C([2H])(Oc1nc(N2CCOC[C@H]3[C@H](F)[C@H]32)c2cnc(-c3cc(N)c(F)cc3C(F)(F)F)c(F)c2n1)[C@@]12CCCN1C[C@H](F)C2` [Example 299, 2-fluoro-5-(8-fluoro-4-((1S,7S,8S)-8-fluoro-5-oxa-2-azabicyclo[5.1.0]octan-2-yl)-2-(((2R,7aS)-2-fluorotetrahydro-1H-pyrrolizin-7a(5H)-yl)methoxy-d2)pyrido[4,3-d]pyrimidin-7-yl)-4-(trifluoromethyl)aniline] was run?
Answer: The pIC50 was 6.30 to 7.30.

Question: With `[2H]C([2H])(F)Oc1c(F)ccc2cc(N)cc(-c3ncc4c(N5CCOC[C@H]6[C@H](F)[C@H]65)nc(OC[C@]56C/C(=C/F)CN5CCC65CC5)nc4c3F)c12` [Example 389, 6-fluoro-4-(8-fluoro-4-((1S,7S,8S)-8-fluoro-5-oxa-2-azabicyclo[5.1.0]octan-2-yl)-2-(((R,Z)-6′-(fluoromethylene)tetrahydrospiro[cyclopropane-1,1′-pyrrolizin]-7a′(5′H)-yl)methoxy)pyrido[4,3-d]pyrimidin-7-yl)-5-(fluoromethoxy-d2)naphthalen-2-amine] as the compound, how does the pIC50 read?
Answer: The pIC50 was over 7.30.

Same assay, conditions: Homo sapiens, NCI-H441, cellular pERK HTRF, NCI-H441 (KRAS G12V) cells

Question: `[2H]C([2H])(Oc1nc(N2CCOC[C@H]3[C@H](F)[C@H]32)c2cnc(-c3cc(N)cc4ccc(F)c(C#C)c34)c(C=C)c2n1)[C@@]12CCCN1C[C@H](F)C2` [Example 455, 5-ethynyl-6-fluoro-4-(4-((1S,7S,8S)-8-fluoro-5-oxa-2-azabicyclo[5.1.0]octan-2-yl)-2-(((2R,7aS)-2-fluorotetrahydro-1H-pyrrolizin-7a(5H)-yl)methoxy-d2)-8-vinylpyrido[4,3-d]pyrimidin-7-yl)naphthalen-2-amine] was tested. Which pIC50 did it give?
Answer: The pIC50 was over 7.30.

Same assay, conditions: Homo sapiens, NCI-H441, pERK HTRF, NCI-H441 cells (KRAS G12V)

Question: `[2H]C([2H])(Oc1nc(N2CCO[C@@H]3[C@@H](F)[C@@H]32)c2cnc(-c3cc(N)cc4cc(F)c(F)c(C#C)c34)c(F)c2n1)[C@@]12CCCN1C[C@H](F)C2` [Example 37, 5-Ethynyl-6,7-difluoro-4-(8-fluoro-4-((1S,6R,7S)-7-fluoro-2-oxa-5-azabicyclo[4.1.0]heptan-5-yl)-2-(((2R,7aS)-2-fluorotetrahydro-1H-pyrrolizin-7a(5H)-yl)methoxy-d2)pyrido[4,3-d]pyrimidin-7-yl)naphthalen-2-amine] was tested. Which pIC50 did it give?
Answer: The pIC50 was 6.30 to 7.30.

Question: How did the pIC50 turn out when `[2H]C([2H])(Oc1nc(N2CCCO[C@H]3[C@@H](F)[C@H]32)c2cnc(-c3cc(N)cc4cc(F)c(F)c(C#C)c34)c(F)c2n1)[C@@]12CCCN1C[C@H](F)C2` [Example 21, 5-Ethynyl-6,7-difluoro-4-(8-fluoro-4-((1R,7S,8S)-8-fluoro-2-oxa-6-azabicyclo[5.1.0]octan-6-yl)-2-(((2R,7aS)-2-fluorotetrahydro-1H-pyrrolizin-7a(5H)-yl)methoxy-d2)pyrido[4,3-d]pyrimidin-7-yl)naphthalen-2-amine] was run?
Answer: Its pIC50 is 5.00 to 6.30.

Question: `[2H]C([2H])([2H])Oc1c(F)c(F)cc2cc(N)cc(-c3ncc4c(N5CCCO[C@H]6[C@H](F)[C@H]65)nc(OC([2H])([2H])[C@@]56CCCN5C[C@H](F)C6)nc4c3F)c12` [Example 74, 6,7-Difluoro-4-(8-fluoro-4-((1R,7S,8R)-8-fluoro-2-oxa-6-azabicyclo[5.1.0]octan-6-yl)-2-(((2R,7aS)-2-fluorotetrahydro-1H-pyrrolizin-7a(5H)-yl)methoxy-d2)pyrido[4,3-d]pyrimidin-7-yl)-5-(methoxy-d3)naphthalen-2-amine] was tested. Which pIC50 did it give?
Answer: The pIC50 was over 7.30.

Question: How did the pIC50 turn out when `[2H]C([2H])(Oc1nc(N2CCCC[C@H]3[C@H](F)[C@H]32)c2cnc(-c3cc(N)cc4cc(F)c(F)c(OC(F)F)c34)c(F)c2n1)[C@@]12CCCN1C[C@H](F)C2` [Example 67, 5-(Difluoromethoxy)-6,7-difluoro-4-(8-fluoro-4-((1S,7R,8S)-8-fluoro-2-azabicyclo[5.1.0]octan-2-yl)-2-(((2R,7aS)-2-fluorotetrahydro-1H-pyrrolizin-7a(5H)-yl)methoxy-d2)pyrido[4,3-d]pyrimidin-7-yl)naphthalen-2-amine] was run?
Answer: Its pIC50 is over 7.30.

Same assay, conditions: Homo sapiens; pERK HTRF, NCI-H441 cells (KRAS G12V)

Question: How did the pIC50 turn out when `[2H]C([2H])([2H])Oc1c(F)ccc2cncc(-c3ncc4c(N5CCOC[C@H]6[C@H](F)[C@H]65)nc(OC([2H])([2H])[C@@]56CCCN5C[C@H](F)C6)nc4c3F)c12` [Example 84, (1S,7S,8S)-8-Fluoro-2-(8-fluoro-7-(6-fluoro-5-(methoxy-d3)isoquinolin-4-yl)-2-(((2R,7aS)-2-fluorotetrahydro-1H-pyrrolizin-7a(5H)-yl)methoxy-d2)pyrido[4,3-d]pyrimidin-4-yl)-5-oxa-2-azabicyclo[5.1.0]octane] was run?
Answer: Its pIC50 is over 7.30.
